Measured values reported in patent US10913753B2, “Thienopyridine carboxamides as ubiquitin-specific protease inhibitors” (FORMA Therapeutics, Inc., priority 2016, dated 2021).

Experiments:
USP28 = USP28 (Homo sapiens (Human), UniProt Q96RU2); test: Ubiquitin-Rhodamine 110 Assay for USP28 Activity; type: biochemical
Protocol: The assay was performed in a final volume of 20 μL in assay buffer containing 20 mM Tris-HCl (pH 8.0, (1M Tris-HCl, pH 8.0 solution; Corning 46-031-CM)), 2 mM CaCl2 (1M Calcium Chloride solution; Sigma #21114) 2 mM BME (2-Mercaptoethanol; Sigma 63689-25ML -F), 0.01% Prionex (0.22 μM filtered, Sigma #G-0411), and 0.01% Triton X-100. Stock compound solutions were stored at −20° C. as 10 mM in DMSO. Up to 1 month prior to the assay, 2 mM test compounds were pre-dispensed into assay plates (Black, low volume; Corning #3820) and frozen at −20° C. Prestamped assay plates were allowed to come to room temperature on the day of the assay. For the screen, 100 nL of 2 mM was pre-dispensed for a final screening concentration of 10 μM (DMSO(fc)=0.5%). […] Plates were incubated stacked for 90 minutes at room temperature before fluorescence was read on the Envision (Excitation at 485 nm and Emission at 535 nm; Perkin Elmer) or on the PheraSTAR (Excitation at 485 nm and Emission at 535 nm; BMG Labtech).
For follow-up studies, the assay was performed in a final volume of 15 μL in assay buffer containing 20 mM Tris-HCl (pH 8.0, (1M Tris-HCl, pH 8.0 solution; Corning 46-031-CM)), 3 mM BME (2-Mercaptoethanol; Sigma 63689-25ML-F), 0.03% BGG (0.22 μM filtered, Sigma, G7516-25G), and 0.01% Triton X-100 (Sigma, T9284-10L). Nanoliter quantities of either an 8-point or 10-point, 3-fold serial dilution in DMSO was pre-dispensed into assay plates (Perkin Elmer, ProxiPlate-384 F Plus) for a final test concentration of either 25 μM to 11 nM or 25 μM to 1.3 nM, respectively. Enzyme USP28, construct USP28 (USP28-5(1-1077)-TEV-6*His; LifeSensors) concentration and incubation times were optimized for the maximal signal-to -background while maintaining initial velocity conditions at a fixed substrate concentration. The final concentration of the enzyme in the assay was 75 pM. […] 5 μL of 2× enzyme was added to assay plates (pre-stamped with compound) preincubated with USP28 for 30 minutes and then 5 μL of 2× Ub-Rh110 was added to assay plates. Plates were incubated stacked for 20 min at room temperature before 5 μL of stop solution was added (final concentration of 10 mM citric acid (Sigma, 251275-500G)). Fluorescence was read on the Envision (Excitation at 485 nm and Emission at 535 nm; Perkin Elmer) or on the PheraSTAR (Excitation at 485 nm and Emission at 535 nm; BMG Labtech).
(§1) For both the USP28 and USP25 assay formats, data were reported as percent inhibition compared with control wells based on the following equation: % inh=1-((FLU-AveLow)/(AveHigh−AveLow)) where FLU=measured Fluorescence, AveLow=average Fluorescence of no enzyme control (n=16), and AveHigh=average Fluorescence of DMSO control (n=16). IC50 values were determined by curve fitting of the standard 4 parameter logistic fitting algorithm included in the Activity Base software package: IDBS XE Designer Model205. Data is fitted using the Levenburg Marquardt algorithm.

USP25 = USP25 (Homo sapiens (Human), UniProt Q9UHP3); test: Ubiquitin-Rhodamine 110 Assay for USP25 Activity; type: biochemical
Chain of USP25 (Q9UHP3 whole entry): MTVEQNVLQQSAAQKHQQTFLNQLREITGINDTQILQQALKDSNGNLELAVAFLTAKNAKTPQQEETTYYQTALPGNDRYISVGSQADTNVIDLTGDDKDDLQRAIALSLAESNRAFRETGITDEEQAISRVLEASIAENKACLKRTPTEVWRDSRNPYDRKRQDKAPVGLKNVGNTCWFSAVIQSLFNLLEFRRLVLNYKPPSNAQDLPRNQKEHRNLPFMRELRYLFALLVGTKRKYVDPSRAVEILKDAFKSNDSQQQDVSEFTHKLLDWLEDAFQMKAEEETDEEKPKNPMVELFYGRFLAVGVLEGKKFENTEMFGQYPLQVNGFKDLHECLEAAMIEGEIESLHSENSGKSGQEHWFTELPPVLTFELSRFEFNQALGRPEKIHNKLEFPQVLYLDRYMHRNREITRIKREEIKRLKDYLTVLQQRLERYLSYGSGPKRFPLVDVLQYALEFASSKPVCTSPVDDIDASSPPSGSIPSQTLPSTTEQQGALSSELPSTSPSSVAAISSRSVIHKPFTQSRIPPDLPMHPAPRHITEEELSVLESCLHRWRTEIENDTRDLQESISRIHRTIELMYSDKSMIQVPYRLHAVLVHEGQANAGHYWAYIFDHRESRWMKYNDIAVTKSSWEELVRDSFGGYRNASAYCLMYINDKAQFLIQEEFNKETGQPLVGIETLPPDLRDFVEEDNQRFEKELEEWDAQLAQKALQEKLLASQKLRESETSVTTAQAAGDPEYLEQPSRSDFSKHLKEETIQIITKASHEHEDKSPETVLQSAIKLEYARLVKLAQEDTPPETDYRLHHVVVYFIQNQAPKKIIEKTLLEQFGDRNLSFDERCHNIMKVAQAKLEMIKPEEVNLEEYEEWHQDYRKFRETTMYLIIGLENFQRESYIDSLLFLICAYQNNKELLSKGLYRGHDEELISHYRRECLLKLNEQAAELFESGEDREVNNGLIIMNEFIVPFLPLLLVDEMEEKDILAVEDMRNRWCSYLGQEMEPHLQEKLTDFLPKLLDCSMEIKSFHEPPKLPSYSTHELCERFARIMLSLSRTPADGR
Protocol: The assay was performed in a final volume of 9 μL in assay buffer containing 20 mM Tris-HCl (pH 8.0, (1M Tris-HC1, pH 8.0 solution; Corning 46-031-CM)), 3 mM BME (2-Mercaptoethanol; Sigma 63689-25ML-F), 0.03% BGG (0.22 μM filtered, Sigma, G7516-25G), and 0.01% Triton X-100 (Sigma, T9284-10L). Nanoliter quantities of 10-point, 3-fold serial dilution in DMSO was pre-dispensed into 1536 assay plates (Corning, #3724BC) for a final test concentration of 25 μM to 1.3 nM, top to lowest dose, respectively. Enzyme USP25, construct USP25-His6, (Boston Biochem E-546). Concentration and incubation times were optimized for the maximal signal-to-background while maintaining initial velocity conditions at a fixed substrate concentration. The final concentration of the enzyme in the assay was 75 pM. […] 3 μL of 2× enzyme was added to assay plates (pre-stamped with compound) preincubated with […] for 30 minutes and then 3 μL of 2× Ub-Rh110 was added to assay plates. Plates were incubated for 45 minutes at room temperature before addition of 3 μL of stop solution (final concentration of 10 mM citric acid (Sigma, 251275-500G)). Fluorescence was read on the Envision (Excitation at 485 nm and Emission at 535 nm; Perkin Elmer) or on the PheraSTAR (Excitation at 485 nm and Emission at 535 nm; BMG Labtech).
as §1

Chain of USP28 (Q96RU2 whole entry): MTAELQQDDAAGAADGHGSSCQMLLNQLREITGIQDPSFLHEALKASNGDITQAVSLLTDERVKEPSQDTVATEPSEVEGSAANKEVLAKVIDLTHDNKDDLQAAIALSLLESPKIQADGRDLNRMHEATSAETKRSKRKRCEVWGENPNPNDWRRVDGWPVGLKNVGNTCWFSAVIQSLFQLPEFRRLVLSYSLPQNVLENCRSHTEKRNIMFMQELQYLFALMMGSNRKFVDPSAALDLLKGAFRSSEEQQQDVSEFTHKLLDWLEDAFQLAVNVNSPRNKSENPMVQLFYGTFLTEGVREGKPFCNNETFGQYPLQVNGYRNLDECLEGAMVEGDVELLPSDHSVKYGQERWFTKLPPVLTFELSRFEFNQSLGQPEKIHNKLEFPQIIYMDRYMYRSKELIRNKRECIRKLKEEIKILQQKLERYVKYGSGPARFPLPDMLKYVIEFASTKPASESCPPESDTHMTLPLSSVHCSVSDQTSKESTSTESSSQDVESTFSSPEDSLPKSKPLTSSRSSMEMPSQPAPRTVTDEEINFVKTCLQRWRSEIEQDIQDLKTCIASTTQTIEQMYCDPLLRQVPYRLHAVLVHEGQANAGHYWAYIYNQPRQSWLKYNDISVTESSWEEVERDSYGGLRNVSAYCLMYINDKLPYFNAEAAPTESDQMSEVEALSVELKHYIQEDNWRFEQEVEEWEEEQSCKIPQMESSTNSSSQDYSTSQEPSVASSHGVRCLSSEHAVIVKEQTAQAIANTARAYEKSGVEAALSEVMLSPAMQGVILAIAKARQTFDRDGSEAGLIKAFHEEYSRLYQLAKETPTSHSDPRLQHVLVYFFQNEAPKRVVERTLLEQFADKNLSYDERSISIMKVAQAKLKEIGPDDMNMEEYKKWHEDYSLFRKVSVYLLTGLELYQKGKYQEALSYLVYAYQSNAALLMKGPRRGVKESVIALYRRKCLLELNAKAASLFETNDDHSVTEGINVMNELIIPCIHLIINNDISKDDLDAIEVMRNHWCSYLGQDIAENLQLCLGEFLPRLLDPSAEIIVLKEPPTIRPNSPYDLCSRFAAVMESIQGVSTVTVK

Compound	IC50 (USP28) [nM]	IC50 (USP25) [nM]
Cc1ccc2c(N)c(C(=O)NCCc3ccc(N4CC[C@@H]5NCC[C@@H]54)cc3)sc2n1 (single isomer, unassigned) [Example I-93]	< 200	< 200
Cc1ccc2c(N)c(C(=O)NCCc3ccc(N4CC[C@H]5NCC[C@H]54)cc3)sc2n1 (single isomer, unassigned) [Example I-94]	200 to 2000	200 to 2000
Cc1ccc2c(N)c(C(=O)NC[C@@H](C)c3cc(F)c(N4CC5CCC(C4)N5)cc3F)sc2n1 (single isomer, unassigned) [Example I-97]	200 to 2000	2000 to 10000
Cc1ccc2c(N)c(C(=O)NC[C@H](C)c3cc(F)c(N4CC5CCC(C4)N5)cc3F)sc2n1 (single isomer, unassigned) [Example I-98]	< 200	200 to 2000
C[C@H](CNC(=O)c1sc2ncc(F)cc2c1N)c1cc(F)c(N2CC3CCC(C2)N3)cc1F (single isomer, unassigned) [Example I-101]	2000 to 10000	2000 to 10000
C[C@@H](CNC(=O)c1sc2ncc(F)cc2c1N)c1cc(F)c(N2CC3CCC(C2)N3)cc1F (single isomer, unassigned) [Example I-102]	2000 to 10000	2000 to 10000
Cc1ccc2c(N)c(C(=O)NC[C@@H](C)c3ccc(N4CC5CCC(C4)N5)cc3F)sc2n1 (single isomer, unassigned) [Example I-103]	200 to 2000	200 to 2000
Cc1ccc2c(N)c(C(=O)NC[C@H](C)c3ccc(N4CC5CCC(C4)N5)cc3F)sc2n1 (single isomer, unassigned) [Example I-104]	200 to 2000	200 to 2000
Cc1ccc2c(N)c(C(=O)NC[C@@H](C)c3ccc(N4CC5CCC(C4)N5)c(F)c3)sc2n1 (single isomer, unassigned) [Example I-105]	200 to 2000	200 to 2000
Cc1ccc2c(N)c(C(=O)NC[C@H](C)c3ccc(N4CC5CCC(C4)N5)c(F)c3)sc2n1 (single isomer, unassigned) [Example I-106]	200 to 2000	2000 to 10000
Cc1nc2sc(C(=O)NC[C@@H](C)c3ccc(N4CC5CCC(C4)N5)c(F)c3)c(N)c2cc1F (single isomer, unassigned) [Example I-107]	200 to 2000	10000 to 25000
Cc1nc2sc(C(=O)NC[C@H](C)c3ccc(N4CC5CCC(C4)N5)c(F)c3)c(N)c2cc1F (single isomer, unassigned) [Example I-108]	200 to 2000	200 to 2000
Cc1ccc2c(N)c(C(=O)NC[C@@H](C)c3ccc(N4CC5CCC(C4)N5)c(C#N)c3)sc2n1 (single isomer, unassigned) [Example I-109]	200 to 2000	2000 to 10000
Cc1ccc2c(N)c(C(=O)NC[C@H](C)c3ccc(N4CCNCC4)cc3)sc2n1 (single isomer, unassigned) [Example I-202]	200 to 2000	
Cc1ccc2c(N)c(C(=O)NCCc3ccc(N4CCNCC4)c(C(F)(F)F)c3)sc2n1 [Compound I-3]	200 to 2000	
Cc1ccc2c(N)c(C(=O)NCCc3cc(F)c(N4CCNCC4)c(F)c3)sc2n1 [Compound I-4]	< 200	
Cc1ccc2c(N)c(C(=O)NCCc3cc(F)c(N4CCNCC4)c(Cl)c3)sc2n1 [Compound I-8]	< 200	
Cc1nc2sc(C(=O)NCCc3ccc(N4CCNCC4)c(Cl)c3)c(N)c2cc1F [Compound I-9]	200 to 2000	
Cc1cnc2sc(C(=O)NCCc3ccc(N4CCNCC4)c(Cl)c3)c(N)c2c1 [Compound I-32]	2000 to 10000	
Cc1ccc2c(N)c(C(=O)NCCc3cc(F)c(N4CCNCC4)c(F)c3F)sc2n1 [Compound I-35]	< 200	
Nc1c(C(=O)NCCc2ccc(N3CCNCC3)c(Cl)c2)sc2ncc(F)cc12 [Compound I-39]	2000 to 10000	

Compound	IC50 (USP28) [nM]	IC50 (USP25) [nM]
Cc1ccc2c(N)c(C(=O)NCCc3c(F)cc(N4CCNCC4)cc3F)sc2n1 [Compound I-42]	200 to 2000	
Cc1ccc2c(N)c(C(=O)NCCc3cc(F)c(N4CC5CCC(C4)N5)c(F)c3)sc2n1 [Compound I-45]	< 200	
Cc1nc2sc(C(=O)NCCc3cc(F)c(N4CCNCC4)cc3F)c(N)c2cc1F [Compound I-46]	200 to 2000	
CN[C@@H]1CCN(c2cc(F)c(CCNC(=O)c3sc4nc(C)ccc4c3N)cc2F)C1 [Compound I-49]	< 200	
CN[C@H]1CCN(c2cc(F)c(CCNC(=O)c3sc4nc(C)ccc4c3N)cc2F)C1 [Compound I-50]	200 to 2000	
COc1ccc2c(N)c(C(=O)NCCc3cc(F)c(N4CCNCC4)cc3F)sc2n1 [Compound I-51]	< 200	
CCc1nc2sc(C(=O)NCCc3cc(F)c(N4CCNCC4)cc3F)c(N)c2cc1F [Compound I-55]	< 200	
Nc1c(C(=O)NCCc2ccc(N3CCNCC3)cc2)sc2nc(Cl)ccc12 [Compound I-57]	200 to 2000	
Cc1ccc2c(N)c(C(=O)NCCc3ccc(N4CC5CNCC(C4)O5)cc3)sc2n1 [Compound I-66]	< 200	
Cc1ccc2c(N)c(C(=O)NCCc3ccc(N4CCNCC4)c(C)c3)sc2n1 [Example I-74, 3-Amino-6-methyl-N-(3-methyl-4-(piperazin-1-yl)phenethyl)thieno[2,3-b]pyridine-2-carboxamide]	< 200	
Cc1ccc2c(N)c(C(=O)NCCc3ccc(-n4ncc5c4CNC5)c(F)c3)sc2n1 [Example I-80]	2000 to 10000	
Cc1ccc2c(N)c(C(=O)NCCc3cc(F)c(C4CCNCC4)cc3F)sc2n1 [Example I-113, 3-Amino-N-(2,5-difluoro-4-(piperidin-4-yl)phenethyl)-6-methylthieno[2,3-b]pyridine-2-carboxamide]	< 200	
Nc1c(C(=O)NCCc2ccc(N3CCNCC3)cc2)sc2nc(C3CC3)ccc12 [Example I-114, 3-Amino-6-cyclopropyl-N-(4-(piperazin-1-yl)phenethyl)thieno[2,3-b]pyridine-2-carboxamide]	< 200	
Cc1ccc2c(N)c(C(=O)NCCc3ccc(N4CC[C@@H](N(C)C)C4)cc3)sc2n1 [Example I-117]	200 to 2000	
Cc1ccc2c(N)c(C(=O)NCCc3ccc(N4CC[C@H](N(C)C)C4)cc3)sc2n1 [Example I-118]	200 to 2000	
Cc1ccc2c(N)c(C(=O)NCCc3ccc(N4CCN(CCN5CCCC5)CC4)cc3)sc2n1 [Example I-119]	2000 to 10000	
Cc1ccc2c(N)c(C(=O)NCCc3ccc(N4CCn5cncc5C4)cc3)sc2n1 [Example I-120]	< 200	
CNc1ccc2c(N)c(C(=O)NCCc3ccc(N4CCNCC4)cc3)sc2n1 [Example I-187]	200 to 2000	
Cc1ccc2c(N)c(C(=O)NC[C@@H](C)c3cc(F)c(N4CCNCC4)cc3F)sc2n1 [Example I-207]	200 to 2000	
Cc1ccc2c(N)c(C(=O)NCCc3cc(F)c(N4CCN[C@H](C)C4)cc3F)sc2n1 [Example I-209, (R)-3-amino-N-(2,5-difluoro-4-(3-methylpiperazin-1-yl)phenethyl) -6-methylthieno[2,3-b]pyridine-2-carboxamide]	10000 to 25000	
